Laboratory results from ChEMBL document CHEMBL1201862, “PubChem BioAssay data set” (2004).
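Method: 48-hour compound exposure of cells in 96-well plates, five concentrations, linear interpolation of endpoints. GI50 is the concentration that inhibits growth by half.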 Activity calls are given as the source filed them. No stated cut-off is given here; in the data, active = GI50 up to about 1.1 µM and inactive = higher. Non-standard residues stand in square brackets, D forms with d. Residues, ends and D or L forms follow the SMILES beside them. *: point of attachment. Ac5c = NC1(C(=O)O)CCCC1; Boc = CC(C)(C)OC(=O)*; tBu = CC(C)(C)*

Tests used:
Experiment in all cases: DTP human tumour cell line panel, 48 h
U-251 = system: U-251
M14 = system: M14
HOP-92 = system: HOP-92
HCT-15 = system: HCT-15
SW-620 = system: SW-620
Hs-578T = system: Hs-578T
K562 = system: K562
SR = system: SR
SK-MEL-2 = system: SK-MEL-2
NCI-H226 = system: NCI-H226
BT-549 = system: BT-549
IGROV-1 = system: IGROV-1
COLO 205 = system: COLO 205
SK-MEL-5 = system: SK-MEL-5
SF-539 = system: SF-539
OVCAR-4 = system: OVCAR-4
DU-145 = system: DU-145
RXF 393 = system: RXF 393
CAKI-1 = system: CAKI-1
NCI/ADR-RES = system: NCI/ADR-RES

SMILES	GI50 (U-251)	GI50 (M14)	GI50 (HOP-92)	GI50 (HCT-15) [µM]	GI50 (SW-620)	GI50 (Hs-578T)	GI50 (K562)	GI50 (SR)	GI50 (SK-MEL-2)	GI50 (NCI-H226)	GI50 (BT-549)	GI50 (IGROV-1)	GI50 (COLO 205)	GI50 (SK-MEL-5)	GI50 (SF-539)	GI50 (OVCAR-4)	GI50 (DU-145)	GI50 (RXF 393)	GI50 (CAKI-1)	GI50 (NCI/ADR-RES)
O=S(=O)(/N=C1/S/C(=N\c2ccccc2)N(c2ccccc2)/C1=N/S(=O)(=O)c1ccccc1)c1ccccc1	22.3 µM (inactive)	20.4 µM (inactive)	13.6 µM (inactive)	14.8	19.4 µM (inactive)	29.6 µM (inactive)	23.9 µM (inactive)	18.1 µM (inactive)	15.2 µM (inactive)	19.8 µM (inactive)	24.1 µM (inactive)	20.5 µM (inactive)	26.9 µM (inactive)	16.3 µM (inactive)	–	–	–	–	–	–
CCC1=CCC23C(=O)C=CC(=O)C2(C1)C(=O)c1cccc(OC)c1C3=O (configuration not stated)	23 µM (inactive)	16 µM (inactive)	15.1 µM (inactive)	18	15.5 µM (inactive)	20.2 µM (inactive)	12.9 µM (inactive)	9.82 µM (inactive)	22.7 µM (inactive)	22.1 µM (inactive)	–	13 µM (inactive)	14.9 µM (inactive)	16.8 µM (inactive)	18.4 µM (inactive)	12.7 µM (inactive)	16.9 µM (inactive)	6.38 µM (inactive)	13.1 µM (inactive)	20.2 µM (inactive)
CC(C)[Si](OC1=C(C(=O)N(C)c2ccccc2Cl)CCCC1)(C(C)C)C(C)C	12.1 µM (inactive)	16.1 µM (inactive)	13.3 µM (inactive)	16.1	15.2 µM (inactive)	13.3 µM (inactive)	6.15 µM (inactive)	5.43 µM (inactive)	14.1 µM (inactive)	16 µM (inactive)	–	16.9 µM (inactive)	14.5 µM (inactive)	13.8 µM (inactive)	18 µM (inactive)	13.9 µM (inactive)	10.6 µM (inactive)	16.1 µM (inactive)	14.3 µM (inactive)	14.9 µM (inactive)
COc1cc2c(cc1O)-c1c(cnn1-c1ccc([N+](=O)[O-])cc1)CCC2	11.7 µM (inactive)	16.6 µM (inactive)	3.75 µM (inactive)	14	23.3 µM (inactive)	19.7 µM (inactive)	32.9 µM (inactive)	–	17.4 µM (inactive)	15.7 µM (inactive)	21.6 µM (inactive)	4.78 µM (inactive)	20.3 µM (inactive)	13.4 µM (inactive)	11.1 µM (inactive)	19.1 µM (inactive)	14.8 µM (inactive)	50.8 µM (inactive)	10.8 µM (inactive)	14.4 µM (inactive)
Cc1ccc(S(=O)(=O)Nn2c(-c3ccccc3)c(C#N)c(-c3ccc([N+](=O)[O-])cc3)c(C#N)c2=O)cc1	> 100 µM (inactive)	> 100 µM (inactive)	30.1 µM (inactive)	> 100	> 100 µM (inactive)	88.7 µM (inactive)	–	–	> 100 µM (inactive)	> 100 µM (inactive)	> 100 µM (inactive)	70.8 µM (inactive)	> 100 µM (inactive)	97.1 µM (inactive)	> 100 µM (inactive)	> 100 µM (inactive)	–	> 100 µM (inactive)	> 100 µM (inactive)	> 100 µM (inactive)
CC1C[C@]2(C)C(=S)Nc3ccccc3[C@@H]2Nc2ccccc21 (some centres not stated)	–	17.4 µM (inactive)	12.2 µM (inactive)	21.6	25.9 µM (inactive)	35.2 µM (inactive)	26.6 µM (inactive)	> 100 µM (inactive)	13 µM (inactive)	17.3 µM (inactive)	–	18.3 µM (inactive)	14.2 µM (inactive)	17.7 µM (inactive)	19.3 µM (inactive)	17.8 µM (inactive)	4 µM (inactive)	19 µM (inactive)	25.4 µM (inactive)	18.5 µM (inactive)
NNC(=O)CC(=O)Nc1ccc(S(=O)(=O)c2ccc(NC(=O)CC(=O)NN)cc2)cc1	> 100 µM (inactive)	> 100 µM (inactive)	> 100 µM (inactive)	> 100	> 100 µM (inactive)	> 100 µM (inactive)	> 100 µM (inactive)	–	> 100 µM (inactive)	> 100 µM (inactive)	> 100 µM (inactive)	> 100 µM (inactive)	> 100 µM (inactive)	> 100 µM (inactive)	> 100 µM (inactive)	> 100 µM (inactive)	> 100 µM (inactive)	> 100 µM (inactive)	> 100 µM (inactive)	> 100 µM (inactive)
CC(=O)O[C@H](C[C@@H](C)[C@H]1C(=O)[C@H](O)[C@@]2(C)C3CC[C@H]4C(C)(C)[C@@H](OC5OCC(O)C(O)C5O)CC[C@@]45C[C@@]35CC[C@]12C)[C@@H]1OC1(C)C (some centres not stated)	16.3 µM (inactive)	31.1 µM (inactive)	16.9 µM (inactive)	24.6	32.4 µM (inactive)	38 µM (inactive)	0.14 µM (active)	–	16 µM (inactive)	17.5 µM (inactive)	21.9 µM (inactive)	16.2 µM (inactive)	22 µM (inactive)	16.1 µM (inactive)	16.3 µM (inactive)	22.4 µM (inactive)	19 µM (inactive)	16.8 µM (inactive)	16.8 µM (inactive)	47.3 µM (inactive)
CCOc1ccc2c(c1)/C(=C(\C(Cl)=C(Cl)Cl)[N+](=O)[O-])N2	> 100 µM (inactive)	> 100 µM (inactive)	–	> 100	> 100 µM (inactive)	> 100 µM (inactive)	51.6 µM (inactive)	–	> 100 µM (inactive)	> 100 µM (inactive)	28.2 µM (inactive)	–	> 100 µM (inactive)	–	> 100 µM (inactive)	33.2 µM (inactive)	> 100 µM (inactive)	–	> 100 µM (inactive)	> 100 µM (inactive)
N=c1c2c(ncn1N)Oc1c(c(-c3ccccc3)nn1-c1ccccc1)C2c1ccc(Cl)cc1 (configuration not stated)	1.65 µM (inactive)	1.56 µM (inactive)	1.71 µM (inactive)	1.31	1.75 µM (inactive)	1.64 µM (inactive)	0.731 µM (active)	0.918 µM (active)	1.69 µM (inactive)	1.98 µM (inactive)	–	1.43 µM (inactive)	0.508 µM (active)	–	1.18 µM (inactive)	1.56 µM (inactive)	2.01 µM (inactive)	1.47 µM (inactive)	2.1 µM (inactive)	1.68 µM (inactive)
Cn1c2ccccc2c(=NNc2cccc(C(=O)O)c2)c2ccccc21	4.69 µM (inactive)	19.6 µM (inactive)	14.8 µM (inactive)	15.3	5.64 µM (inactive)	17.8 µM (inactive)	3.37 µM (inactive)	–	16.8 µM (inactive)	12.1 µM (inactive)	7.59 µM (inactive)	17.8 µM (inactive)	12.2 µM (inactive)	14.7 µM (inactive)	19.2 µM (inactive)	12.4 µM (inactive)	11.9 µM (inactive)	6.38 µM (inactive)	25.1 µM (inactive)	24.3 µM (inactive)
C[C@@H]1OC2(O)[C@@H]3CCCN3C(=O)N(Cc3ccccc3)N2C1=O (some centres not stated)	–	> 100 µM (inactive)	> 100 µM (inactive)	> 100	> 100 µM (inactive)	> 100 µM (inactive)	–	> 100 µM (inactive)	> 100 µM (inactive)	> 100 µM (inactive)	–	> 100 µM (inactive)	> 100 µM (inactive)	> 100 µM (inactive)	> 100 µM (inactive)	> 100 µM (inactive)	> 100 µM (inactive)	> 100 µM (inactive)	> 100 µM (inactive)	> 100 µM (inactive)
COC(=O)C1(C(=O)OC)N=C(C)OC1c1ccccn1 (configuration not stated)	> 100 µM (inactive)	> 100 µM (inactive)	> 100 µM (inactive)	> 100	> 100 µM (inactive)	–	> 100 µM (inactive)	> 100 µM (inactive)	> 100 µM (inactive)	> 100 µM (inactive)	> 100 µM (inactive)	> 100 µM (inactive)	> 100 µM (inactive)	> 100 µM (inactive)	–	> 100 µM (inactive)	> 100 µM (inactive)	> 100 µM (inactive)	> 100 µM (inactive)	> 100 µM (inactive)
Nc1n[n+](CC(=O)c2ccccc2)c2sc(-c3ccccc3)nn12	> 100 µM (inactive)	61.2 µM (inactive)	–	75.2	36.8 µM (inactive)	> 100 µM (inactive)	82.4 µM (inactive)	–	> 100 µM (inactive)	> 100 µM (inactive)	> 100 µM (inactive)	> 100 µM (inactive)	> 100 µM (inactive)	48.6 µM (inactive)	74.8 µM (inactive)	> 100 µM (inactive)	> 100 µM (inactive)	> 100 µM (inactive)	> 100 µM (inactive)	> 100 µM (inactive)
CC(OC(C)(C)C)C1NC(=O)C(CCCCNC(=O)OC(C)(C)C)NC(=O)C(Cc2c[nH]c3ccccc23)NC(=O)C(Cc2ccccc2)NC(=O)C2(CCCC2)NC(=O)C(Cc2ccccc2)NC1=O (configuration not stated) (cyclo([Ac5c]FWK(Boc)T(tBu)F); configuration not given here)	15.8 µM (inactive)	16.7 µM (inactive)	23.5 µM (inactive)	> 100	22.9 µM (inactive)	33.3 µM (inactive)	27.8 µM (inactive)	32.2 µM (inactive)	–	21.5 µM (inactive)	–	16.2 µM (inactive)	20.4 µM (inactive)	15.9 µM (inactive)	36.9 µM (inactive)	49.9 µM (inactive)	50.9 µM (inactive)	37.5 µM (inactive)	42.9 µM (inactive)	> 100 µM (inactive)
